Measurements taken from US20120328569A1, “INHIBITORS OF HEPATITIS C VIRUS NS5B POLYMERASE” (priority 2010, published 2012).

tested on: HCV genotype 1b replicon; experiment: HCV replicon assay, cell ELISA with antibody to replicon-encoded NS3/4A (genotype 1b replicon); assay type: cell-based, hepatitis C virus; details: Hepatitis C virus, 96 h, read-out: 1b IC50(nM), HCV genotype 1b replicon; 96 hours incubation; NS3/4A cell ELISA
Outline: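 An ELISA on lysed cells, using an antibody against NS3/4A protease, served as the proxy for replicon RNA. Cells had first been exposed for 96 h to serially diluted compound in G418-free conditions. Percent of DMSO control was fitted with a four-parameter function to give IC50.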

Compound	IC50 [nM]
CNC(=O)c1c(-c2ccc(F)cc2)oc2cc(N(C)S(C)(=O)=O)c(-c3ccc(OCCO)c(-c4nc5c(F)cccc5o4)c3)cc12 [Example 620]	1.66
CNC(=O)c1c(-c2ccc(F)cc2)oc2cc(N(C)S(C)(=O)=O)c(-c3ccc(OCC(F)F)c(-c4cc5ccccc5[nH]4)c3)cc12 [Example 622]	647
CNC(=O)c1c(-c2ccc(F)cc2)oc2cc(N(C)S(C)(=O)=O)c(-c3cc(OS(C)(=O)=O)cc(-c4nc5c(F)cccc5o4)c3)cc12 [Example 627]	1.4
CNC(=O)c1c(-c2ccc(F)cc2)oc2cc(N(C)S(C)(=O)=O)c(-c3ccc(OC)c(-c4nc5cc(C(N)=O)ccc5o4)c3)cc12 [Example 632]	4.61
CNC(=O)c1c(-c2ccc(F)cc2)oc2cc(N(C)S(C)(=O)=O)c(-c3ccc(OC)c(-c4nc5c(C(=O)NC)cccc5o4)c3)cc12 [Example 637]	4.03
CNC(=O)c1c(-c2ccc(F)cc2)oc2cc(N(C)S(C)(=O)=O)c(-c3ccc(OC)c(-c4nc5c(C(=O)Nc6ccccc6)cccc5o4)c3)cc12 [Example 638]	29.8
CNC(=O)c1c(-c2ccc(F)cc2)oc2cc(N(C)S(C)(=O)=O)c(-c3cc(C(=O)O)cc(-c4nc5c(F)cccc5o4)c3)cc12 [Example 650, 3-(4-fluorobenzo[d]oxazol-2-yl)-5-(2-(4-fluorophenyl)-3-(methylcarbamoyl)-6-(N-methylmethylsulfonamido)benzofuran-5-yl)benzoic acid]	55.7
CNC(=O)c1c(-c2ccc(F)cc2)oc2cc(N(C)S(C)(=O)=O)c(-c3ccc(C(=O)O)c(-c4nc5c(F)cccc5o4)c3)cc12 [Example 651]	155
CNC(=O)c1cc(-c2nc3c(F)cccc3o2)cc(-c2cc3c(C(=O)NC)c(-c4ccc(F)cc4)oc3cc2N(C)S(C)(=O)=O)c1 [Example 654]	3.65
CNC(=O)c1c(-c2ccc(F)cc2)oc2cc(N(C)S(C)(=O)=O)c(-c3ccc(C(=O)N(C)C)c(-c4nc5c(F)cccc5o4)c3)cc12 [Example 655]	2.52
CNC(=O)c1ccc(-c2cc3c(C(=O)NC)c(-c4ccc(F)cc4)oc3cc2N(C)S(C)(=O)=O)cc1-c1nc2c(F)cccc2o1 [Example 656]	8.41
CNC(=O)c1c(-c2ccc(F)cc2)oc2cc(N(C)S(C)(=O)=O)c(-c3ccc(OC)c(-c4nc5ccc(-c6cncnc6)cc5o4)c3)cc12 [Example 658, 2-(4-fluorophenyl)-5-(4-methoxy-3-(6-(pyrimidin-5-yl)benzo[d]oxazol-2-yl)phenyl)-N-methyl-6-(N-methylmethylsulfonamido) benzofuran-3-carboxamide]	8.53
CNC(=O)c1c(-c2ccc(F)cc2)oc2cc(N(C)S(C)(=O)=O)c(-c3ccc(OC)c(-c4nc5ccc(-c6cccnc6)cc5o4)c3)cc12 [Example 659]	8.62
CNC(=O)c1c(-c2ccc(F)cc2)oc2cc(N(C)S(C)(=O)=O)c(-c3ccc(OC)c(-c4nc5cc(-c6cncnc6)ccc5o4)c3)cc12 [Example 663]	2.5
CNC(=O)c1c(-c2ccc(F)cc2)oc2cc(N(C)S(C)(=O)=O)c(-c3cccc(-c4cc5c(F)cc(F)cc5s4)c3)cc12 [Example 685]	12
CNC(=O)c1c(-c2ccc(F)cc2)oc2cc(N(C)S(C)(=O)=O)c(-c3ccc(OC)c(-c4csc5ncccc45)c3)cc12 [Example 686]	17.6
CNC(=O)c1c(-c2ccc(F)cc2)oc2cc(N(C)S(C)(=O)=O)c(-c3ccc(OC)c(-c4cc5ccc(F)cc5s4)c3)cc12 [Example 687]	27.3
CNC(=O)c1c(-c2ccc(F)cc2)oc2cc(N(C)S(C)(=O)=O)c(-c3ccc(OC)c(-c4cc5ncccc5s4)c3)cc12 [Example 688]	7.53
CNC(=O)c1c(-c2ccc(F)cc2)oc2cc(N(CC3CC(O)C3)S(C)(=O)=O)c(-c3ccc(OC)c(-c4nc5c(F)cccc5o4)c3)cc12 (centres unmarked) [Example 701]	6.21

Compound	IC50 [nM]
CNC(=O)c1c(-c2ccc(F)cc2)oc2cc(N(CC3CC3)S(C)(=O)=O)c(-c3ccc(OC)c(-c4nc5c(F)cc(F)cc5o4)c3)cc12 [Example 705]	15.6
CNC(=O)c1c(-c2ccc(F)cc2)oc2cc(N(CC3CC3)S(C)(=O)=O)c(-c3ccc(OC)c(-c4nc5cc(F)cc(F)c5o4)c3)cc12 [Example 706]	16.7
CNC(=O)c1c(-c2ccc(F)cc2)oc2cc(N(Cc3cccnc3)S(C)(=O)=O)c(-c3ccc(OC)c(-c4nc5c(F)cccc5o4)c3)cc12 [Example 707]	4.93
CNC(=O)c1c(-c2ccc(F)cc2)oc2cc(N(Cc3cccnc3)S(C)(=O)=O)c(-c3ccc(OC)c(-c4nc5c(C#N)cccc5o4)c3)cc12 [Example 708]	3.95
CNC(=O)c1c(-c2ccc(F)cc2)oc2cc(N(Cc3cccnc3)S(C)(=O)=O)c(-c3ccc(OC)c(-c4nc5c(F)cc(F)cc5o4)c3)cc12 [Example 709]	6.05
CNC(=O)c1c(-c2ccc(F)cc2)oc2cc(N(CC3CCS(=O)(=O)C3)S(C)(=O)=O)c(-c3ccc(OC)c(-c4nc5c(F)cccc5o4)c3)cc12 (centres unmarked) [Example 717]	2.84
CNC(=O)c1c(-c2ccc(F)cc2)oc2cc(N(CC3CCS(=O)(=O)C3)S(C)(=O)=O)c(-c3ccc(OC)c(-c4nc5c(F)cc(F)cc5o4)c3)cc12 (centres unmarked) [Example 718]	3.9
CNC(=O)c1c(-c2ccc(F)cc2)oc2cc(N(CC3CCS(=O)(=O)C3)S(C)(=O)=O)c(-c3cccc(-c4nc5ncccc5o4)c3)cc12 (centres unmarked) [Example 719]	3.14
CNC(=O)c1c(-c2ccc(F)cc2)oc2cc(N(C3COC3)S(C)(=O)=O)c(-c3ccc(OC)c(-c4nc5c(F)cccc5o4)c3)cc12 [Example 720]	41.6
CNC(=O)c1c(-c2ccc(F)cc2)oc2cc(N(C3COC3)S(C)(=O)=O)c(-c3ccc(OC)c(-c4nc5c(F)cc(F)cc5o4)c3)cc12 [Example 721]	4.94
CNC(=O)c1c(-c2ccc(F)cc2)oc2cc(N(C3COC3)S(C)(=O)=O)c(-c3ccc(OC)c(-c4nc5c(C#N)cccc5o4)c3)cc12 [Example 722]	3.03
CNC(=O)c1c(-c2ccc(F)cc2)oc2cc(N(CC3(C)COC3)S(C)(=O)=O)c(-c3cccc(-c4nc5ncccc5o4)c3)cc12 [Example 723]	2.31
CNC(=O)c1c(-c2ccc(F)cc2)oc2cc(N(CC3(C)COC3)S(C)(=O)=O)c(-c3ccc(OC)c(-c4nc5c(F)cccc5o4)c3)cc12 [Example 724]	4.47
CNC(=O)c1c(-c2ccc(F)cc2)oc2cc(N(CC3(C)COC3)S(C)(=O)=O)c(-c3ccc(OC)c(-c4nc5c(F)cc(F)cc5o4)c3)cc12 [Example 725]	10.5
CNC(=O)c1c(-c2ccc(F)cc2)oc2cc(N(C3CCOC3)S(C)(=O)=O)c(-c3ccc(OC)c(-c4nc5c(F)cccc5o4)c3)cc12 (centres unmarked) [Example 726]	5.54
CNC(=O)c1c(-c2ccc(F)cc2)oc2cc(N(CC3CCOC3)S(C)(=O)=O)c(-c3ccc(OC)c(-c4nc5c(F)cc(F)cc5o4)c3)cc12 (centres unmarked) [Example 729]	3.3
CNC(=O)c1c(-c2ccc(F)cc2)oc2cc(N(CCC(C)(C)C#N)S(C)(=O)=O)c(-c3ccc(OC)c(-c4nc5c(F)cccc5o4)c3)cc12 [Example 733]	7.78
CNC(=O)c1c(-c2ccc(F)cc2)oc2cc(N(CCC(C)(C)C#N)S(C)(=O)=O)c(-c3ccc(OC)c(-c4nc5c(F)cc(F)cc5o4)c3)cc12 [Example 735]	10.5
CNC(=O)c1c(-c2ccc(F)cc2)oc2cc(N(CC3(C#N)CC3)S(C)(=O)=O)c(-c3ccc(OC)c(-c4nc5c(F)cccc5o4)c3)cc12 [Example 737]	19
